These results are taken from PMC10127588 (mBio, 2023).

For assay [1], the system named is M. oryzae conidia. To be noted: cited from earlier work.
Assay [2] relates to M. oryzae conidia. The format is cell-based, Magnaporthe oryzae.
The test system of assay [3] is M. oryzae conidia. It counts as cell-based, Magnaporthe oryzae. This is another data set of the same source.
For assay [4], the system named is M. oryzae. More on the design: species or system Magnaporthe oryzae. To be noted: in vivo.
The target of another assay is Pmk1 (Pyricularia oryzae, UniProt G4N0Z0). It counts as binding, Magnaporthe oryzae.
Chain of Pmk1 (G4N0Z0 whole entry, looked up): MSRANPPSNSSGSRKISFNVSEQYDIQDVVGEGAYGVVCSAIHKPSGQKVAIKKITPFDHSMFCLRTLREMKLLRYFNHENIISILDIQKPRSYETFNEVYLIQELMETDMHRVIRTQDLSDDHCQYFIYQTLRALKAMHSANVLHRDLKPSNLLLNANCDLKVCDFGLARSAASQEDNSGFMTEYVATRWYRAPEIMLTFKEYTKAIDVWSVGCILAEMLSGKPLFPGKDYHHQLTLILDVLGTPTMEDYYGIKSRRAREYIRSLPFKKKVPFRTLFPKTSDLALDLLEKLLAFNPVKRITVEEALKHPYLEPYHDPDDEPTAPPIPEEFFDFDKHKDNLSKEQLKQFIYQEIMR
Assay [5] concerns M. oryzae. The format is cell-based.
Assay [6] concerns the target T1, Mps1 (Pyricularia oryzae, UniProt G4N374). The assay can be described thus: biochemical. The format is binding, Magnaporthe oryzae.
In assay [7] the test system is M. oryzae. The format is cell-based. This is another data set of the same source.
The subject of assay [8] is M. oryzae. More on the design: species or system Magnaporthe oryzae. To be noted: in vivo. The source holds these as a separate data set.
In assay [9] the target is T2, Mpk1 (Fusarium oxysporum, UniProt X0BN28). Kind of assay: biochemical. The format is binding.
For assay [10], the target named is T2, Mpk1. It counts as biochemical.
Assay [11] addresses T1, Mps1. It counts as biochemical, Magnaporthe oryzae.
Assay [12] has as its system M. oryzae. The format is cell-based. The source holds these as a separate data set.
The target in a further assay is Src. To be noted: read-out: affinity; cited from earlier work.
The next assay has as its target Itk. To be noted: read-out: affinity; cited from earlier work.

Entries after “also recorded” stand apart in the source; their conditions may differ. Read-outs that look alike come from different tables or passages of the source.

T1 sequence (G4N374 whole entry, looked up): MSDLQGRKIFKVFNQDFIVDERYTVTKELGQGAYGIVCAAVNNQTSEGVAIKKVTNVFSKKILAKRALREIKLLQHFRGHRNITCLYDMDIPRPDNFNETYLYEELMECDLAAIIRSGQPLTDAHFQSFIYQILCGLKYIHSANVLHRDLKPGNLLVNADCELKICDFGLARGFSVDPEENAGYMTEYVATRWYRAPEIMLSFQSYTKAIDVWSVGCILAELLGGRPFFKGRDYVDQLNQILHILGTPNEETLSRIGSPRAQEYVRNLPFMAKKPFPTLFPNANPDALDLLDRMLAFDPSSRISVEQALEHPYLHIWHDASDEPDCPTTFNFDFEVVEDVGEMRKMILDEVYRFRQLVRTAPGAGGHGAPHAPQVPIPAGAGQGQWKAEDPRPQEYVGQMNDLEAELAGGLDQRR

Take `CC(C)OC(=O)C(C(=O)OC(C)C)=C1SCCS1` [Isoprothiolane, diisopropyl 2-(1,3-dithiolan-2-ylidene)malonate]: in the assay with M. oryzae conidia [1], the “concentration that can inhibit appressorium penetration” value was 20 µg/mL.
Consider `CNC(=O)[C@H](Cc1c[nH]c2ccccc12)NC(=O)c1ccc2cncc(-c3cc(OC(F)(F)F)ccc3OC)c2n1` [A378-0], for which the “appressorium penetration (penetration peg formation)” value in the assay on M. oryzae conidia [2] was “did not form a penetration peg”. The “germination and appressorium formation of conidia” value with M. oryzae conidia [3] was “could not inhibit the germination and appressorium formation”. Further, in the assay with M. oryzae [4], the “virulence on barley leaves” value is reported as “exhibits inhibition of M. oryzae virulence on barley leaves”. In addition, the “binding to Pmk1” value on Pmk1 was “nonspecific binding”. Besides, the “conidiation reduced to” value in the assay with M. oryzae [5] is on record as “about 40%”. Besides, the Kd was found to be 69.2 µM on Mps1 [6] and 70.3 µM on Mpk1 [9]. The “sensitivity to lysing enzyme (cell wall integrity)” value in the assay with M. oryzae [7] is reported as “readily reduced to spheroplasts”. The “concentration at which conidia were completely nonpathogenic” value in the assay with M. oryzae [8] stood at 150 µg/mL. The “concentration from which inhibition of M. oryzae virulence is observed” value with M. oryzae [8] came out at 50 µg/mL. Further, the “kinase activity of Mpk1” value at Mpk1 [10] is listed as “can inhibit the kinase activity of Mpk1”. In addition, the “kinase activity of Mps1” value at Mps1 [11] was “suppressed the kinase activity of Mps1”. Further, in the assay on M. oryzae [12], the “autolysis on the culture dish” value is “progressive autolysis was observed”.
Regarding adenylyl imidodiphosphate [AMP-PNP], the “binding to Mps1” value at Mps1 [6] is given as “does not interact with Mps1; also recorded: no binding was detected”. Moreover, the figures for the Kd at Mps1 [6] (read-out: KD), at Src and at Itk were less than 500 µM, 2540 µM and 7900 µM, respectively.
